Format in all cases: cell-based
The test system of test [1] is HL-60 cells (human acute myeloid leukemia cells). The experiment in a line: alamarBlue proliferation assay with HL-60 cells. To be noted: 120 h, 5 days, relative to DMSO baseline level of 1.0, read-out: AVEw, weighted arithmetic mean of normalized fluorescence intensity values (Activity Range), HL-60 proliferation. The protocol: (§1) The antiproliferative activities of compounds falling under formula I, formula II, formula III, formula IV and formula V were investigated on cells or cell lines originating from a disorder of the myeloid cell compartment, the neuroendocrine system, the cervix, and the mucosal epithelium, as well as from the skin epithelium. To this end, HL-60 cells, TT cells, HeLa cells, CAL-27 cells and human primary epidermal keratinocytes (HPEK) were seeded into 96-well plates suitable for fluorescence assays (CORNING #3598) at following initial cell numbers: 1000 cells per well for HL-60; 9000 cells per well for TT; 2000 cells per well for HeLa, 2000 cells per well for CAL-27, 2000 cells per well for HPEK. The cells were treated with compounds at indicated final concentrations (diluted from the 1000× stock-solutions in DMSO to a final DMSO concentration of 0.1% v/v) or with the empty carrier DMSO at 0.1% v/v as control for 5 days. At day 5 after starting the treatments the cells were subjected to the alamarBlue® Proliferation Assay (Bio-Rad Serotec GmbH, BUF012B) according to the protocol of the manufacturer. The readout was taken with a multi-well plate-reader in the fluorescence mode with applying a filter for excitation at 560 nm (band width 10 nm) and for emission at 590 nm (band width 10 nm). Resveratrol (RES) treatment was included as control for growth inhibition.
(§2) The assays were performed in duplicate or more replicates of independent single experiments each containing a six-fold replicate for every condition. For every individual plate, the measured fluorescence intensity values of the conditions with compound treatment were normalized against the corresponding equally weighted arithmetic mean of the fluorescence intensity values of the six DMSO treated control wells in order to obtain the relative values to a baseline level of 1.0. The statistical calculations were performed in analogy to the luciferase assay as described above. To this end, two independent outlier analyses were performed according to the methods by Peirce and Chauvenet (Ross, Journal of Engineering Technology 2003, 1-12). Outliers confirmed by at least one of the methods were excluded from the calculations but not more than one value out of six per compound within a single experiment. The weighted arithmetic mean AVEw for each compound was calculated from the normalized values over all independent replicates of the single experiments comprising the six replicates each. The corresponding standard deviation for the weighted arithmetic mean was calculated according to the method described by Bronstein et al. (Bronstein, Semendjajew, Musiol, Mühlig, Taschenbuch der Mathematik, 5th edition 2001 (German), publisher: Verlag Harri Deutsch, Frankfurt am Main and Thun) and was combined with the Gauß′ error propagation associated with the performed calculation for the normalization. The resulting standard deviation is herein referred to as “combined standard deviation”.
HL-60 cells were cultivated according to the protocol of the provider in RPMI 1640 medium (Fisherscientific, #11554526) containing 10% fetal bovine serum (Fisherscientific, #15517589).
(§3) A compound is considered as a growth inhibitor of HL-60 cells, if—at a reference concentration of 20 μM—the weighted arithmetic mean of the normalized fluorescence intensity values after addition of the corresponding combined standard deviation amounts to 0.9 or lower, in particular to 0.8 or lower, 0.7 or lower, 0.6 or lower, 0.4 or lower, and 0.2 or lower, relative to the overall basis level of 1.0. The overall basis level was calculated as the weighted arithmetic mean of all normalized values from the DMSO control measurements in analogy to the calculations performed for the test-compounds. The corresponding combined standard deviation for the DMSO values amounts to less than 1·10^−2.
For orientation: Alamar Blue is a resazurin reagent that responds to reducing activity.

For test [2], the system named is CAL-27 cells (human tongue squamous cell carcinoma cells). The experiment in a line: alamarBlue proliferation assay with CAL-27 cells. To be noted: Homo sapiens, 120 h, 20 μM, 5 days, relative to DMSO baseline level of 1.0, read-out: AVEw, weighted arithmetic mean of normalized fluorescence intensity values (Activity Range), CAL-27 proliferation. As to the method: as §1, §2
CAL-27 cells were cultivated according to the protocol of the provider (but at 5% instead of 10% CO2) in DMEM medium (Fisherscientific, #11584456) containing 10% fetal bovine serum (Fisherscientific, #15517589).
as §3, with “CAL-27” for “HL-60”

Test [3] has as its system Notch signaling (hNotch1ΔE, human Notch1 receptor) in HeLa cells. The experiment in a line: Notch reporter assay (luciferase luminescence readout in transfected HeLa cells). To be noted: Homo sapiens, 20 hours, relative to DMSO baseline level of 1.0, read-out: AVEw, weighted arithmetic mean of double-normalized Notch-reporter luciferase luminescence values (Activity Range). The protocol: An according Notch-reporter assay, i.e. a luciferase-based luminescence readout, was used here to quantify the ability of the claimed small molecules to augment Notch signaling in a cellular system. For this purpose, HeLa cells, obtainable from the American Type Culture Collection (ATCC) under the accession number ATCC-CCL-2, were transiently transfected for 24 hours using FuGENE® HD (Promega, #E2311) as transfection reagent with expression vectors of a membrane-tethered form of the constitutively active intracellular domain of the human Notch1 receptor (hNotch1ΔE) to activate the signaling cascade (BPS Bioscience, human analogue to Notch Pathway Reporter Kit #60509 component C), a Firefly luciferase being expressed under the control of a Notch-responsive promoter to monitor Notch signaling (BPS Bioscience, Notch Pathway Reporter Kit #60509, CSL luciferase reporter vector from component A not premixed with Renilla luciferase vector), and a Renilla luciferase being constitutively expressed in a Notch signaling independent manner to include a measure for the cell number per sample (Promega, pRL-SV40, #E2231). HeLa cells were cultivated according to the protocol of the provider in DMEM medium (Fisherscientific, #11584456) containing 10% fetal bovine serum (Fisherscientific, #15517589). The transfection was carried out in a 100 mm-culture dish (StarLab, #CC7682-3394) with cells being properly attached to the plate at a cell confluency of 80-90% in a total volume of 7 mL culture medium. Per dish to be transfected, a transfection mix was prepared by adding to 238 μL Opti-MEM (Fisherscientific, #10149832) 40 μL of the hNotch1ΔE expression vector (100 ng/μL), 80 μL of the CSL luciferase reporter vector (40 ng/μL), 4 μL of the pRL-SV40-Renilla luciferase vector (10 ng/μL), and in the last step 18.1 μL of FuGENE® HD. After addition of FuGENE® HD the transfection mix was let stand for 15 min at room temperature and hereafter equally distributed into the culture dish. Subsequently, i.e. after 24 hours of transfection, the transfected cells (10.000 cells per well) were incubated with the test-compounds at a final concentration of 10 μM (diluted from 10 mM stock-solutions in DMSO to a final DMSO concentration of 0.1% v/v) or with the empty carrier DMSO at 0.1% v/v as control for 20 hours in 96-well plates suitable for luminescence readouts (CORNING, #3610). Hereafter, the cells were lysed with 30 μL per well of Passive Lysis Buffer (Promega, #E194A, component of Dual-Luciferase® Reporter Assay System, #E1910) and the Firefly as well as Renilla luciferase values were measured with a luminescence reader with applying 15 μL per well each of the corresponding enzyme substrates needed to create the luminescence signals (Promega, Dual-Luciferase® Reporter Assay System, #E1910).
The suitability of the assays for monitoring Notch signaling was controlled by additionally including a generally accepted commercial Notch inhibitor, i.e. DAPT, as negative control, as well as the reported Notch enhancer resveratrol (RES) as positive control (Pinchot et al., Cancer 2011, 117, 1386-1398; Truong et al., Ann. Surg. Oncol. 2011, 18, 1506-1511; Yu et al., Mol. Cancer Ther. 2013, 12, 1276-1287). Both control compounds were likewise tested at 10 μM.
Per single experiment the measurement was performed in six replicates per compound. For every compound, this experiment was repeated in three or more independent replicates. The values of the Notch-reporter luciferase were normalized by division through the corresponding individual Notch-independent Renilla values in order to eliminate the impact of variation in the absolute cell-numbers in between the samples. For every individual plate, a second normalization was performed against the equally weighted arithmetic mean (here abbreviated as AVE) of the six associated Renilla-normalized DMSO-control values within a single experiment in order to obtain the relative values to a baseline level of 1.0. […]
For orientation: In a reporter assay the amount or activity of a reporter protein is the signal.

In the case of `Cc1ccc(Oc2ccc(C(=O)NO)cc2)cc1` [Compound 164, N-hydroxy-4-(p-tolyltoxy)benzamide], the figures for the activity at 20 µM in test [1] and in test [2] were 40 to 60% and 70 to 80%, respectively.
The matching figures for `CNC(=O)c1ccc(Oc2ccc(C3CC4CCC3CC4)cc2)cc1` (centres unmarked) [Compound 211, 4-(4-((1s,4s)-bicyclo[2.2.2]octan-2-yl)phenoxy)-N-methylbenzamide]: 20 to 40% and 40 to 60%.
The corresponding values for `CN(C)C(=O)c1ccc(Oc2ccc(C3C[C@@H]4CC[C@H]3C4)cc2)cc1` (stereo partly drawn) [Compound 236, 4-(4-((1S,4R)-bicyclo[2.2.1]heptan-2-yl)phenoxy)-N,N-dimethylbenzamide] are 40 to 60% and 80 to 90%.
The matching figures for `CN(C)C(=O)c1ccc(Oc2ccc(C34CC5CC(CC(C5)C3)C4)cc2)cc1` [Compound 238, 4-(4-((3r,5r,7r)-adamantan-1-yl)pheoxy)-N,N-dimethylbenzamide]: 40 to 60% and 60 to 70%.
As to `CCCc1ccc(Oc2ccc(C(=O)N(C)C)cn2)cc1` [Compound 318, N,N-dimethyl-6-(4-propylphenoxy)nicotinamide], the activity at 20 µM in test [1] is 40 to 60%. Further, the fold induction at 10 µM in test [3] was 1.7 to 2.
The matching figures for `CCCCc1ccc(Oc2ccc(C(=O)N(C)C)cn2)cc1` [Compound 319, 6-(4-butylphenoxy)-N,N-dimethylnicotinamide]: 40 to 60% and 1.3 to 1.4.
The corresponding values for `CC(C)c1ccc(Oc2ccc(C(=O)N(C)C)cn2)cc1` [Compound 322, 6-(4-Isopropylphenoxy)-N,N-dimethylnicotinamide] are 70 to 80% and not below 2.
The corresponding values for `CN(C)C(=O)c1ccc(Oc2ccc(C(F)(F)F)cc2)nc1` [Compound 325, N,N-dimethyl-6-(4-(trifluoromethyl)phenoxy)nicotinamide] are 80 to 90% and 1.2 to 1.3.
In the case of `CN(C)C(=O)c1ccc(Oc2ccc(C3C[C@@H]4CC[C@H]3C4)cc2)nc1` (stereo partly drawn) [Compound 336, 6-(4-((1S,4R)-bicyclo[2.2.1]heptan-2-yl)phenoxy)-N,N-dimethylnicotinamide], the activity at 20 µM in test [1] fell in the range of 60 to 70%. Further, in test [3], the fold induction at 10 µM is 1.4 to 1.7.
`CN(C)C(=O)c1ccc(Oc2ccc(C3CC4CCC3CC4)cc2)nc1` (centres unmarked) [Compound 337, 6-(4-((1s,4s)-bicyclo[2.2.2]octan-2-yl)phenoxy)-N,N-dimethylnicotinamide]: the activity at 20 µM in test [1] fell in the range of 80 to 90%. In test [3], the fold induction at 10 µM was in the range of 1.4 to 1.7.
The corresponding values for `COC(=O)c1ccc(Oc2ccc(C3CCCCC3)cc2)c(F)c1` [Compound 385, methyl 4-(4-cyclohexylphenoxy)-3-fluorobenzoate] are 80 to 90% and 1.4 to 1.7.
The matching figures for `CCCCc1ccc(Oc2ccc(C(=O)OCC)cc2F)cc1` [Compound 395, Ethyl 4-(4-butylphenoxy)-3-fluorobenzoate]: 80 to 90% and 1.4 to 1.7.
The corresponding values for `CCOC(=O)c1ccc(Oc2ccc(C(C)(C)CC)cc2)c(F)c1` [Compound 399, ethyl 3-fluoro-4-(4-(tert-pentyl)phenoxy)benzoate] are 80 to 90% and 1.1 to 1.2.
For `CCOC(=O)c1ccc(Oc2ccc(C3CCCCC3)cc2)c(F)c1` [Compound 410, ethyl 4-(4-cyclohexylphenoxy)-3-fluorobenzoate], the activity at 20 µM in test [1] was 70 to 80%. The fold induction at 10 µM in test [3] lay in the range of 1.4 to 1.7.
For `COC(=O)c1ccc(Oc2ccc(C3(C(F)(F)F)CC3)cc2)cc1` [Compound 712, Methyl 4-(4-(1-(trifluoromethyl)cyclopropyl)phenoxy)benzoate], the activity at 20 µM in test [1] was 80 to 90%. In addition, the fold induction at 10 µM in test [3] lay within 1.1 to 1.2.
The corresponding values for `CN(C)C(=O)c1ccc(Oc2ccc(C3(C(F)(F)F)CC3)cc2)cc1` [Compound 784, N,N-Dimethyl-4-(4-(1-(trifluoromethyl)cyclopropyl)phenoxy)-benzamide] are 40 to 60% and 1.2 to 1.3.
